Laboratory results published in article PMC7472354, “Enhanced Antimicrobial Activity of N-Terminal Derivatives of a Novel Brevinin-1 Peptide from The Skin Secretion of Odorrana schmackeri” (Toxins, 2020).
In brackets after ≈: the same amount, converted by molar mass. Where two headings read alike, the source gives them in different places. Where a SMILES comes first, the peptide text is derived from it.

Assays:
[1] = test system: P. aeruginosa (ATCC 27853) biofilm; assay type: cell-based, Pseudomonas aeruginosa; conditions: for MBIC50 / MBIC90: ATCC 27853, 24 h
Experimental: (§1) The anti-biofilm effects of all synthetic peptides were evaluated, which was described in our previous study. The organisms, including S. aureus (NCTC 10788), E. coli (NCTC 10418), MRSA (ATCC 12493), E. faecalis (NCTC 12697) and P. aeruginosa (ATCC 27853), were investigated in this study. Gram-positive bacteria were cultured in the TSB broth and Gram-negative bacteria were cultured in the LB broth. The anti-biofilm effects were determined based on the MBIC and MBEC of all the peptides. For the determination of MBIC, 5 × 10^5 CFU/mL bacterial cultures were incubated with the peptides concentrations (ranging from 1 µM to 512 µM) for 24 h. The sterilised medium and bacterial suspension without any treatment were used as the negative controls and positive controls, respectively. After incubation, wells were rinsed, fixed, stained, washed and dissolved with phosphate buffer saline (PBS), methanol (90%, v/v), crystal violet (0.1%, w/v), sterile deionised water and acetic acid (30%, v/v), respectively. The absorbance of dissolved stain was measured at a 595 nm using a Synergy HT plate reader (Biotech, Minneapolis, MN, USA).
(§2) For the MBEC assay, the peptide concentrations were prepared as above. The bacteria were cultured in the 96 well plate for 24–48 h, which allowed the formation of mature biofilm in the plate. Then, the bacterial culture was removed from the plate. The biofilm was further washed to remove the planktonic bacteria using PBS. Then, the fresh broth that contained different peptide concentrations was added in the plate for incubation of 24 h at 37 °C. After incubation, the plate was stained by crystal violet as mentioned above. The definition of MBIC can be given when compared to the negative control group (≥90%, MBIC90; ≥50%, MBIC50). The definition of the MBEC can be given when compared to the negative control group (≥90%, MBEC90; ≥50%, MBEC50).

S. aureus = assay type: cell-based, Staphylococcus aureus; conditions: 24 h
Experimental: (§3) The minimal inhibitory concentrations (MICs) and minimum bactericidal concentrations (MBCs) were evaluated to determine the antimicrobial activity of synthetic peptides. The microorganisms employed in the study are two kinds of Gram-negative bacteria, Escherichia coli (NCTC 10418) and Pseudomonas aeruginosa (ATCC 27853), three kinds of Gram-positive bacteria, Staphylococcus aureus (NCTC 10788), Methicillin-resistant Staphylococcus aureus (MRSA, ATCC 12493) and Enterococcus faecalis (NCTC 12697) and a yeast, Candida albicans (NCPF 1467), as indicated previously. For antimicrobial assays, 5 × 10^5 CFU/mL of bacterial suspensions were incubated with the concentrations of the peptides (ranging from 1 µM to 512 µM) for 24 h at 37 °C. The sterilised broth medium was used as the positive control and the microorganism cultured in the medium only was treated as the negative control. […] The MBC results were defined as the lowest bactericidal concentrations of peptide. The antimicrobial activity of peptides was tested by monitoring the absorbance at 550 nm using an ELISA plate reader (Biolise BioTek EL808, Winooski, VT, USA).
(§4) The activity of peptides in the different environmental conditions including different concentrations of NaCl (50, 100 and 150 mM) and MgCl2 (0.5, 1 and 2 mM), pH (6, 7 and 8), temperature (50 °C, 75 °C and 100 °C) and 10% fetal bovine serum (FBS) solution, was evaluated using the broth microdilution assay as described in the antimicrobial activity assay. For the stability test of peptides in the presence of salt, pH and serum, these conditions were adjusted in the fresh medium that was further used to dilute the bacteria suspension. The peptides were also dissolved in such broth and mixed with the bacteria suspension in the 96 well plate. For the thermal stability test, the peptides were dissolved in the water and incubated at different temperature for 15 min before dosing in the plate. The sterilised broth with corresponding conditions was used as the positive controls, and the bacteria suspension without any treatment was used as the negative controls.

MRSA = assay type: cell-based, Staphylococcus aureus; conditions: 24 h
Experimental: as §3, §4

[2] = test system: E. faecalis (NCTC 12697) biofilm; assay type: cell-based, Enterococcus faecalis; conditions: for MBIC50 / MBIC90: NCTC 12697, 24 h
Experimental: as §1, §2

[3] = test system: S. aureus (NCTC 10788) biofilm; assay type: cell-based, Staphylococcus aureus; conditions: for MBIC50 / MBIC90: NCTC 10788, 24 h
Experimental: as §1, §2

[4] = test system: MRSA (ATCC 12493) biofilm; assay type: cell-based, Staphylococcus aureus; conditions: for MBIC50 / MBIC90: ATCC 12493, 24 h
Experimental: as §1, §2

C. albicans = assay type: cell-based, Candida albicans; conditions: 24 h
Experimental: as §3, §4

[5] = test system: Galleria mellonella larvae; experiment: Toxicity to uninfected Galleria mellonella larvae; assay type: in vivo; conditions: uninfected G. mellonella larvae injected with drug; n = 30 per group; vancomycin 20 mg/kg
Experimental: The in vivo study of antimicrobial activity of the peptides was evaluated using the larvae of Galleria mellonella, which was described in the previous study with minor modifications. The larvae of Galleria mellonella (250 ± 25 mg; Livefood UK Ltd., Rooks Bridge, UK) were selected. The MRSA culture was prepared the same way as the antimicrobial activity assay. Then, MRSA cells were collected and washed, and further diluted to 10^8 CFU/mL in the saline. Ten µL of MRSA suspension was injected to the larvae and placed in a petri dish. After 2 h, the MRSA infected larvae were administrated with 10 µL of peptides (25 mg/kg, 50 mg/kg) by injection. Saline and vancomycin (20 mg/kg) (Sigma-Aldrich, UK) were used as the negative control and positive control, respectively. Each sample group contained 10 larvae, and the experiment was repeated three times (30 larvae for each group in total). The survival curves were achieved using Prism (Version 6.0; GraphPad Software Inc., San Diego, CA, USA) and the log-rank test was employed to analyze the significance between the different treatments and the controls. * (p < 0.05), ** (p < 0.01) and *** (p < 0.001) represent statistical significance.
Figure A9 Larvae without any MRSA infection were injected with peptides and vancomycin respectively to access the cytotoxicity of the drugs to larvae bodies. […] Effect of treatment of G. mellonella larvae (n = 30 for each group) without any infection and only treated with 5 µL vancomycin (20 mg/kg), OSd, OSe and OSf.

E. faecalis = assay type: cell-based, Enterococcus faecalis; conditions: 24 h
Experimental: as §3, §4

Compound	MBEC50 [1] [µM]	MBEC90 [1] [µM]	MBIC50 [1] [µM]	MBIC90 [1] [µM]	MIC (S. aureus; pH 6) [µM]	MIC (S. aureus; pH 7) [µM]	MIC (S. aureus; pH 8) [µM]	MIC (MRSA; pH 6) [µM]	MIC (MRSA; pH 7) [µM]	MIC (MRSA; pH 8) [µM]	MBEC50 [2] [µM]	MBEC90 [2] [µM]	MBIC50 [2] [µM]	MBIC90 [2] [µM]	MBEC50 [3] [µM]	MBEC90 [3] [µM]	MBIC50 [3] [µM]	MBIC90 [3] [µM]	MBEC50 [4]	MBEC90 [4] [µM]	other results
CC(C)C[C@H](NC(=O)[C@H](C)NC(=O)[C@H](Cc1c[nH]c2ccccc12)NC(=O)[C@H](CCCCN)NC(=O)[C@H](CC(C)C)NC(=O)[C@@H](N)Cc1ccccc1)C(=O)N[C@@H](CCCCN)C(=O)N[C@H](C(=O)N[C@@H](C)C(=O)N[C@@H](C)C(=O)N[C@@H](CCCCN)C(N)=O)C(C)C [OSd] (H-FLKWALKVAAK-NH2)	> 512	> 512	128	256	64 (≈ 81.5 µg/mL)	32 (≈ 40.8 µg/mL)	32 (≈ 40.8 µg/mL)	256 (≈ 326 µg/mL)	128 (≈ 163 µg/mL)	64 (≈ 81.5 µg/mL)	128	256	64	128	32	128	8	32	32/32 µM	256	MBIC50 [4]: 32/32 µM; MBIC90 [4]: 64 µM; MIC (C. albicans; pH 6): 64 µM (≈ 81.5 µg/mL); MIC (C. albicans; pH 7): 32 µM (≈ 40.8 µg/mL); MIC (C. albicans; pH 8): 32 µM (≈ 40.8 µg/mL); toxicity to larvae without MRSA infection [5]: No noticeable cytotoxicity; MIC (E. faecalis; pH 6): 256 µM (≈ 326 µg/mL); MIC (E. faecalis; pH 7): 128 µM (≈ 163 µg/mL); MIC (E. faecalis; pH 8): 128 µM (≈ 163 µg/mL)
CC(C)C[C@H](NC(=O)[C@H](C)NC(=O)[C@H](Cc1c[nH]c2ccccc12)NC(=O)[C@H](CCCCN)NC(=O)[C@H](CC(C)C)NC(=O)[C@@H](N)Cc1ccccc1)C(=O)N[C@@H](CCCCN)C(=O)N[C@@H](Cc1c[nH]c2ccccc12)C(=O)N[C@@H](C)C(=O)N[C@@H](C)C(=O)N[C@@H](CCCCN)C(N)=O [OSe] (H-FLKWALKWAAK-NH2)	> 512	> 512	64	128	16 (≈ 21.8 µg/mL)	8 (≈ 10.9 µg/mL)	4 (≈ 5.44 µg/mL)	64 (≈ 87.1 µg/mL)	16 (≈ 21.8 µg/mL)	8 (≈ 10.9 µg/mL)	128	128	64	64	32	32	4	8	32 µM	32	MBIC50 [4]: 8 µM; MBIC90 [4]: 16 µM; MIC (C. albicans; pH 6): 16 µM (≈ 21.8 µg/mL); MIC (C. albicans; pH 7): 8 µM (≈ 10.9 µg/mL); MIC (C. albicans; pH 8): 4 µM (≈ 5.44 µg/mL); toxicity to larvae without MRSA infection [5]: No noticeable cytotoxicity; MIC (E. faecalis; pH 6): 32 µM (≈ 43.5 µg/mL); MIC (E. faecalis; pH 7): 64 µM (≈ 87.1 µg/mL); MIC (E. faecalis; pH 8): 32 µM (≈ 43.5 µg/mL)
CC(C)C[C@H](NC(=O)[C@H](C)NC(=O)[C@H](Cc1c[nH]c2ccccc12)NC(=O)[C@H](CCCCN)NC(=O)[C@@H]1CCCN1C(=O)[C@H](CC(C)C)NC(=O)[C@@H](N)Cc1ccccc1)C(=O)N[C@@H](CCCCN)C(=O)N[C@@H](Cc1c[nH]c2ccccc12)C(=O)N[C@@H](C)C(=O)N[C@@H](C)C(=O)N[C@@H](CCCCN)C(N)=O [OSf] (H-FLPKWALKWAAK-NH2; N-terminus assumed)	> 512	> 512	64	256	128 (≈ 187 µg/mL)	8 (≈ 11.7 µg/mL)	16 (≈ 23.3 µg/mL)	512 (≈ 746 µg/mL)	16 (≈ 23.3 µg/mL)	32 (≈ 46.7 µg/mL)	128	256	32	64	32	128	8	32	32 µM	128	MBIC50 [4]: 16 µM; MBIC90 [4]: 64 µM; MIC (C. albicans; pH 6): 128 µM (≈ 187 µg/mL); MIC (C. albicans; pH 7): 8 µM (≈ 11.7 µg/mL); MIC (C. albicans; pH 8): 16 µM (≈ 23.3 µg/mL); toxicity to larvae without MRSA infection [5]: No noticeable cytotoxicity; MIC (E. faecalis; pH 6): 512 µM (≈ 746 µg/mL); MIC (E. faecalis; pH 7): 32 µM (≈ 46.7 µg/mL); MIC (E. faecalis; pH 8): 128 µM (≈ 187 µg/mL)
